Laboratory results taken from ChEMBL document CHEMBL1201862, “PubChem BioAssay data set” (2004).
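Protocol summary: plate cells (96-well), add compound at 5 concentrations, incubate 48 h, interpolate endpoints linearly. Abbreviation: GI50, concentration required for 50% inhibition of growth.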 The source made the active and inactive calls. Rule as the data show it: active = GI50 up to about 1.1 µM and inactive = higher.

Legend:
Test in all cases: inhibition of tumour cell growth, NCI panel, 48 h
[1] = system: SK-OV-3
[2] = system: Malme-3M
[3] = system: DU-145
[4] = system: SK-MEL-2
[5] = system: SF-268
[6] = system: HL-60
[7] = system: SN12C
[8] = system: 786-0
[9] = system: A549
[10] = system: U-251
[11] = system: KM12
[12] = system: UO-31
[13] = system: CCRF-CEM
[14] = system: SK-MEL-28
[15] = system: SNB-19
[16] = system: SNB-75
[17] = system: NCI-H522
[18] = system: NCI-H226
[19] = system: SR
[20] = system: MDA-N
[21] = system: NCI-H23
[22] = system: SNB-78
[23] = system: DMS-273
[24] = system: LOX IMVI
[25] = system: KM-20L2
[26] = system: BT-549
[27] = system: HOP-92
[28] = system: RPMI-8226
[29] = system: SF-539
[30] = system: OVCAR-3
[31] = system: HCT-15
[32] = system: DMS-114
[33] = system: RXF 631
[34] = system: Hs-578T
[35] = system: CAKI-1
[36] = system: ACHN
[37] = system: EKVX
[38] = system: HCC 2998
[39] = system: SK-MEL-5
[40] = system: TK-10
[41] = system: M19-MEL
[42] = system: A498
[43] = system: NCI/ADR-RES
[44] = system: OVCAR-5
[45] = system: UACC-257
[46] = system: T47D
[47] = system: OVCAR-8
[48] = system: K562
[49] = system: IGROV-1
[50] = system: OVCAR-4
[51] = system: HCT-116
[52] = system: M14
[53] = system: COLO 205
[54] = system: MCF7
[55] = system: SF-295
[56] = system: MDA-MB-231
[57] = system: NCI-H460
[58] = system: RXF 393
[59] = system: UACC-62
[60] = system: SW-620
[61] = system: PC-3
[62] = system: XF498
[63] = system: DLD-1
[64] = system: HT-29
[65] = system: LXFL 529
[66] = system: HOP-18
[67] = system: MOLT-4
[68] = system: MDA-MB-435
[69] = system: HOP-62

With `CC[C@@]1(OC(=O)CCC(=O)O)C(=O)OCc2c1cc1n(c2=O)Cc2cc3ccccc3nc2-1` the GI50 [1] was 230 nM (active), the GI50 [2] was 467 nM (active) and the GI50 [3] was 27.1 nM (active). The GI50 [4] was 1850 nM (inactive), the GI50 [5] was 39.5 nM (active) and the GI50 [6] was 31.3 nM (active). The GI50 [7] was 33.3 nM (active), the GI50 [8] was 26.3 nM (active) and the GI50 [9] was 77.3 nM (active). The GI50 [10] was 30.3 nM (active), the GI50 [11] was 659 nM (active) and the GI50 [12] was 58.3 nM (active). For the same compound, the GI50 [13] was < 10 nM (active), the GI50 [14] was 1230 nM (inactive) and the GI50 [15] was 51.9 nM (active). For the same compound, the GI50 [16] was 104 nM (active), the GI50 [17] was 103 nM (active) and the GI50 [18] was 193 nM (active). For the same compound, the GI50 [19] was < 10 nM (active), the GI50 [20] was 1090 nM (active) and the GI50 [21] was 44.2 nM (active). For the same compound, the GI50 [22] was 2770 nM (inactive), the GI50 [23] was < 20.3 nM (active) and the GI50 [24] was 37.5 nM (active). For the same compound, the GI50 [25] was 979 nM (active), the GI50 [26] was 484 nM (active) and the GI50 [27] was 1290 nM (inactive). For the same compound, the GI50 [28] was 193 nM (active), the GI50 [29] was 28.1 nM (active) and the GI50 [30] was 910 nM (active). For the same compound, the GI50 [31] was 472 nM, the GI50 [32] was 46 nM (active) and the GI50 [33] was 427 nM (active). The GI50 [34] was 14600 nM (inactive), the GI50 [35] was 30.9 nM (active) and the GI50 [36] was 20.8 nM (active). For the same compound, the GI50 [37] was 1360 nM (inactive), the GI50 [38] was 458 nM (active) and the GI50 [39] was 127 nM (active). For the same compound, the GI50 [40] was 3650 nM (inactive), the GI50 [41] was 239 nM (active) and the GI50 [42] was 216 nM (active). The GI50 [43] was 38.3 nM (active), the GI50 [44] was 363 nM (active) and the GI50 [45] was 254 nM (active). For the same compound, the GI50 [46] was 65 nM (active), the GI50 [47] was 137 nM (active) and the GI50 [48] was 360 nM (active). For the same compound, the GI50 [49] was 541 nM (active), the GI50 [50] was 1460 nM (inactive) and the GI50 [51] was 104 nM (active). The GI50 [52] was 55.6 nM (active), the GI50 [53] was 692 nM (active) and the GI50 [54] was 28.7 nM (active). The GI50 [55] was 25.1 nM (active), the GI50 [56] was 3860 nM (inactive) and the GI50 [57] was < 10 nM (active). For the same compound, the GI50 [58] was 257 nM (active), the GI50 [59] was 18.7 nM (active) and the GI50 [60] was 150 nM (active). The GI50 [61] was 239 nM (active), the GI50 [62] was 497 nM (active) and the GI50 [63] was 1580 nM (inactive). The GI50 [64] was 366 nM (active), the GI50 [65] was 2010 nM (inactive) and the GI50 [66] was 492 nM (active). The GI50 [67] was < 10 nM (active), the GI50 [68] was 435 nM (active) and the GI50 [69] was 13.9 nM (active).
